Source: article PMC8398059, “Peptoids with Antibiofilm Activity against the Gram Negative Obligate Anaerobe, Fusobacterium nucleatum” (Molecules, 2021)
Non-standard residues stand in square brackets, D forms with d. Residues, ends and D or L forms follow the SMILES beside them. Gly(N-(CH2)6NH2) = NCCCCCCNCC(=O)O; Gly(N-2-aminoethyl) = NCCNCC(=O)O; Nspe = C[C@H](NCC(=O)O)c1ccccc1; Nphe = O=C(O)CNCc1ccccc1; Nlys = NCCCCNCC(=O)O

Tests used:
Assay type in all cases: cell-based
human erythrocytes = test: Haemolytic assay; conditions: peptoid 100 µM, 37 °C, 1 h, absorbance 450 nm; positive control 1% Triton x-100; n = 3 independent experiments, 3 replicates each
Experimental: The haemolytic assay was employed to determine the potential cytotoxicity of the peptoids against human red blood cells. Blood samples were collected with ethical approval and informed consent in vacutainer containers with dipotassium ethylene- diaminetetraacetic acid (K2-EDTA). Blood was then transferred to a 50 mL tube and centrifuged at 1200× g for 5 min at room temperature. The supernatant was removed and PBS was added to the original volume of sample obtained. This step was repeated a further 3 times. The red blood cells were then diluted to 8% of their original volume for use in the haemolytic assay. A 1% solution of Triton x-100 in PBS served as a positive control, and PBS was used as a negative control.
Peptoids 1, 2, 3, 4, 5, 6, 7, 8 and 9 were diluted in PBS to 200 µM. A total volume of 100 µL of each peptoid was placed in the wells of a v-bottomed 96-well microtitre plate. Red blood cells (100 µL), prepared as outlined above, were then added. The final peptoid concentration in each well was therefore 100 µM. The plate was sealed with an adhesive film to prevent evaporation and incubated at 37 °C for 1 h. Following this time, the plate was centrifuged at 4000 RPM for 5 min to pellet unlysed red blood cells. Following this step, 100 µL of supernatant was carefully removed from each well and added to a flat-bottomed 96-well microtitre plate. The absorbance was read at 450 nm using a Tecan Genios (Männedorf, Switzerland) plate reader, and the percentage of red blood cells lysed was calculated.

[1] = test system: human primary gingival fibroblasts; test: MTT cell viability assay; conditions: peptoid 1 µM, 24 h, 37 °C; n = 3 independent experiments, 6 replicates each
Experimental: Cultured primary gingival fibroblast cells were obtained with ethical approval and informed consent, and were grown as previously described. Cells were seeded in 96-well plates at a concentration of 1 × 10^5 cells/mL (100 µL per well). Plates were incubated at 37 °C for 48 h to allow cells to reach confluence. Peptoids 1, 3, 4, 5, 6, 7 and 9 were diluted to 200 µM, 20 µM and 2 µM. The culture medium was removed and replaced with 50 µL of Dulbecco’s Modified Eagle’s Medium (DMEM) and 50 µL of the relevant peptoid. The cells were incubated for 24 h at 37 °C. After this time, 10 µL of 3-(4, 5- dimethylthiazol-2-yl)-2,5-diphenyltetrazolium bromide (MTT) reagent (Sigma-Aldrich, Poole, UK) was added to each well and the plate was incubated for a further 3 h at 37 °C. The medium was removed by aspiration and the wells were allowed to dry for 20 min. Then, 200 µL of dimethyl sulfoxide (DMSO) (Sigma-Aldrich, Poole, UK) was added to all wells and the plate was placed in an incubator for 30 min. The absorbance of the wells was read in a Tecan Genios (Männedorf, Switzerland) plate reader at 510 nm after 60 s of orbital shaking.

[2] = test system: Fusobacterium nucleatum biofilm; test: Biofilm inhibition assay with PMA-qPCR; conditions: strain NCTC 10562, anaerobic, 96-well plate, 48 h with peptoid + 48 h maturation, n = 3 independent experiments
Experimental: The F. nucleatum type strain (NCTC 10562, originally isolated from human, inflamed gingival tissue) was obtained from the National Collection of Type Cultures. The optical density (OD) of an overnight culture was measured spectrophotometrically at 570 nm and diluted with fresh broth to an OD of 0.30–0.35. The culture was further diluted 1 in 50 with anaerobic broth, giving a final inoculum concentration of approximately 5 × 10^6 CFU/mL. A biofilm inhibition assay was undertaken in a 96-well plate format. Peptoids 4 and 9 were added along with the inoculum (90 µL of inoculum in broth and 10 µL of peptoid solution) to each well, to yield peptoid concentrations of 1 µM and 10 µM. A solution containing 10 µL of PBS and 90 µL of anaerobic broth acted as an untreated control. Biofilms were allowed to develop in the presence of peptoids 4 or 9 for 48 h. After 48 h biofilm development, planktonic cells were removed by gently washing three times with PBS and then replacing the broth with 100 µL of fresh anaerobic broth prior to a further 48 h incubation for biofilm maturation. After this time, the wells were gently washed three times with 100 µL of PBS to remove planktonic cells. Plates were then sealed with parafilm, and the biofilms were dislodged from the wells in an ultrasonic bath for 20 min. Plates were then returned to the anaerobic cabinet and the dislodged biofilm samples were collected in Eppendorf tubes.
Propidium monoazide (PMA)-qPCR was undertaken essentially as previously described. Briefly, PMA (Biotium, Fremont, CA, USA), was diluted 1 in 50 with PBS. The diluted PMA was then added to the dislodged biofilm samples in a 1:1 ratio in an Eppendorf tube, to give a final PMA concentration of 200 µM. The Eppendorfs were incubated at 37 °C for 10 min in the dark and then placed under a broad spectrum LED floodlight (ELRD, HL60 ^0 LEDx Max 0.1V) for 10 min. During this time, the Eppendorfs were inverted several times. Bacterial DNA was then extracted using the Qiagen blood and tissue kit (Germantown, MD, USA) according to the manufacturer’s instructions. Briefly, bacterial samples released from biofilms were centrifuged at 14000 RPM for 6 min, and the supernatant was removed. Bacterial pellets were resuspended in 200 µL of AL buffer, and 25 µL of proteinase K was added to each Eppendorf. The suspensions were then heated to 56 °C for 30 min with shaking. Following this, 200 µL of ethanol was added to each Eppendorf and mixed gently. The contents were placed in fresh spin columns in 2 mL collection tubes. The spin columns were centrifuged at 8000 RPM for 2 min. The flow-through and the collection tubes were discarded. The spin columns were placed in fresh collection tubes, and 500 µL of AW1 buffer was added to each column. […]

Row | Compound | Percentage lysis of human erythrocytes (human erythrocytes) | Viability of gingival fibroblasts (MTT) vs untreated controls [1] | F. nucleatum biofilm formation (live cell numbers by PMA-qPCR) ([2]; peptoid 1 µM) | F. nucleatum biofilm formation (live cell numbers by PMA-qPCR) ([2]; peptoid 10 µM)
1 | NCCCCNCC(=O)N(CC(=O)N(CC(=O)N(CCCCN)CC(=O)N(CC(=O)N(CC(=O)N(CCCCN)CC(=O)N(CC(=O)N(CC(=O)N(CCCCN)CC(=O)N(CC(=O)N(CC(N)=O)Cc1ccccc1)Cc1ccccc1)Cc1ccccc1)Cc1ccccc1)Cc1ccccc1)Cc1ccccc1)Cc1ccccc1)Cc1ccccc1 [Peptoid 1] (H-[Nlys][Nphe][Nphe][Nlys][Nphe][Nphe][Nlys][Nphe][Nphe][Nlys][Nphe][Nphe]-NH2; N-terminus assumed) | ≥ 10% |  |  | 
2 | C[C@@H](c1ccccc1)N(CC(N)=O)C(=O)CN(C(=O)CN(CCCCN)C(=O)CN(C(=O)CN(C(=O)CN(CCCCN)C(=O)CN(C(=O)CN(C(=O)CNCCCCN)[C@@H](C)c1ccccc1)[C@@H](C)c1ccccc1)[C@@H](C)c1ccccc1)[C@@H](C)c1ccccc1)[C@@H](C)c1ccccc1 [Peptoid 3] (H-[Nlys][Nspe][Nspe][Nlys][Nspe][Nspe][Nlys][Nspe][Nspe]-NH2; N-terminus assumed) | ≥ 10% |  |  | 
3 | NCCNCC(=O)N(CC(=O)N(CC(=O)N(CCN)CC(=O)N(CC(=O)N(CC(=O)N(CCN)CC(=O)N(CC(=O)N(CC(=O)N(CCN)CC(=O)N(CC(=O)N(CC(N)=O)Cc1ccccc1)Cc1ccccc1)Cc1ccccc1)Cc1ccccc1)Cc1ccccc1)Cc1ccccc1)Cc1ccccc1)Cc1ccccc1 [Peptoid 4, (NaeNpheNphe)4-NH2] (H-[Gly(N-2-aminoethyl)][Nphe][Nphe][Gly(N-2-aminoethyl)][Nphe][Nphe][Gly(N-2-aminoethyl)][Nphe][Nphe][Gly(N-2-aminoethyl)][Nphe][Nphe]-NH2; N-terminus assumed) | ≥ 10% | not to alter gingival fibroblast viability | statistically significant reduction in biofilm formation | statistically significant reduction in biofilm formation
4 | C[C@@H](c1ccccc1)N(CC(N)=O)C(=O)CN(C(=O)CN(CCN)C(=O)CN(C(=O)CN(C(=O)CN(CCN)C(=O)CN(C(=O)CN(C(=O)CNCCN)[C@@H](C)c1ccccc1)[C@@H](C)c1ccccc1)[C@@H](C)c1ccccc1)[C@@H](C)c1ccccc1)[C@@H](C)c1ccccc1 [Peptoid 5] (H-[Gly(N-2-aminoethyl)][Nspe][Nspe][Gly(N-2-aminoethyl)][Nspe][Nspe][Gly(N-2-aminoethyl)][Nspe][Nspe]-NH2; N-terminus assumed) | ≥ 10% |  |  | 
5 | NCCCCCCNCC(=O)N(CC(=O)N(CC(=O)N(CCCCCCN)CC(=O)N(CC(=O)N(CC(=O)N(CCCCCCN)CC(=O)N(CC(=O)N(CC(=O)N(CCCCCCN)CC(=O)N(CC(=O)N(CC(N)=O)Cc1ccccc1)Cc1ccccc1)Cc1ccccc1)Cc1ccccc1)Cc1ccccc1)Cc1ccccc1)Cc1ccccc1)Cc1ccccc1 [Peptoid 6] (H-[Gly(N-(CH2)6NH2)][Nphe][Nphe][Gly(N-(CH2)6NH2)][Nphe][Nphe][Gly(N-(CH2)6NH2)][Nphe][Nphe][Gly(N-(CH2)6NH2)][Nphe][Nphe]-NH2; N-terminus assumed) | less than 5% |  |  | 
6 | NCCCCCCNCC(=O)N(CC(=O)N(CC(=O)N(CCCCCCN)CC(=O)N(CC(=O)N(CC(=O)N(CCCCCCN)CC(=O)N(CC(=O)N(CC(N)=O)Cc1ccccc1)Cc1ccccc1)Cc1ccccc1)Cc1ccccc1)Cc1ccccc1)Cc1ccccc1 [Peptoid 7] (H-[Gly(N-(CH2)6NH2)][Nphe][Nphe][Gly(N-(CH2)6NH2)][Nphe][Nphe][Gly(N-(CH2)6NH2)][Nphe][Nphe]-NH2; N-terminus assumed) | less than 5% |  |  | 
7 | C[C@@H](c1ccccc1)N(CC(N)=O)C(=O)CN(C(=O)CN(CCCCCCN)C(=O)CN(C(=O)CN(C(=O)CN(CCCCCCN)C(=O)CN(C(=O)CN(C(=O)CNCCCCCCN)[C@@H](C)c1ccccc1)[C@@H](C)c1ccccc1)[C@@H](C)c1ccccc1)[C@@H](C)c1ccccc1)[C@@H](C)c1ccccc1 [Peptoid 9, (NahNspeNspe)3-NH2] (H-[Gly(N-(CH2)6NH2)][Nspe][Nspe][Gly(N-(CH2)6NH2)][Nspe][Nspe][Gly(N-(CH2)6NH2)][Nspe][Nspe]-NH2; N-terminus assumed) | less than 5% | not to alter gingival fibroblast viability | statistically significant reduction in biofilm formation | statistically significant reduction in biofilm formation
